“And” between values parts separate entries of the source, which are not always exact repeats. Equal values may be shown once.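 Following 48 hours of exposure in 96-well plates, responses at five concentrations were used to interpolate endpoints linearly. The concentration for 50% growth inhibition is given as GI50. The concentration for full growth arrest is given as TGI.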
What was measured:
Test in all cases: NCI tumour cell line growth inhibition, 48 h
LXFL 529 NSCLC = system: LXFL 529 NSCLC
HOP-62 NSCLC = system: HOP-62 NSCLC
NCI-H460 lung = system: NCI-H460 lung
786-0 renal = system: 786-0 renal
ACHN renal = system: ACHN renal
KM12 colon = system: KM12 colon
KM20L2 colon = system: KM20L2 colon
OVCAR-5 ovarian = system: OVCAR-5 ovarian
SW-620 colon = system: SW-620 colon
SK-OV-3 ovarian = system: SK-OV-3 ovarian

SMILES	TGI (LXFL 529 NSCLC)	TGI (HOP-62 NSCLC)	TGI (NCI-H460 lung)	TGI (786-0 renal)	TGI (ACHN renal)	TGI (KM12 colon)	TGI (KM20L2 colon)	TGI (OVCAR-5 ovarian)	TGI (SW-620 colon)	TGI (SK-OV-3 ovarian)	GI50 (HOP-62 NSCLC)	GI50 (KM12 colon)	GI50 (KM20L2 colon)	GI50 (OVCAR-5 ovarian)	GI50 (SW-620 colon)	GI50 (SK-OV-3 ovarian)	GI50 (LXFL 529 NSCLC)	GI50 (NCI-H460 lung)	GI50 (786-0 renal)	GI50 (ACHN renal)
Cc1cc2c(cc1C)[n+](=O)c(C(=O)CC(=O)C(=O)Nc1ccccc1C(C)C)c(C)n2[O-]	> 100 µM	> 100 µM	> 100 µM	> 100 µM	> 100 µM	> 100 µM	> 100 µM	> 100 µM	> 100 µM	> 100 µM	–	–	–	–	–	–	–	–	–	–
N#CC(/C(=N/NC(N)=S)C(=O)Nc1cccc(Cl)c1)c1ccccc1 (stereo unspecified)	> 100 µM	> 100 µM	> 100 µM	> 100 µM	> 100 µM	> 100 µM	> 100 µM	> 100 µM	> 100 µM	> 100 µM	–	–	–	–	–	–	–	–	–	–
COC1=CC(=O)OC(/C=C(C)/C=C/C2=C(C)CCCC2(C)C)C1 (stereo unspecified)	> 100 µM	> 100 µM	> 100 µM	> 100 µM	> 100 µM	> 100 µM	> 100 µM	> 100 µM	> 100 µM	> 100 µM	–	–	–	–	–	–	–	–	–	–
CCc1nc2ccccc2c(=O)n1/N=C(\N=Nc1ccc(Cl)cc1)c1ccccc1	50.8 µM	69.4 µM	> 100 µM	59.2 µM	> 92.4 µM	34.7 µM	27.7 µM	> 100 µM	> 100 µM	62 µM	–	–	–	–	–	–	–	–	–	–
Cc1ccc(NC(=O)/C(=N\NC(N)=S)C(C#N)c2ccccc2C)cc1C (stereo unspecified)	> 100 µM	> 100 µM	> 100 µM	> 100 µM	> 100 µM	> 100 µM	> 100 µM	> 100 µM	> 100 µM	> 100 µM	–	–	–	–	–	–	–	–	–	–
CCOC(=O)Nc1ccc2c(c1)N(C(=O)CCN(CC)CC)c1ccccc1S2	42.5 µM	134 µM	57.1 µM	69.8 µM	> 95.5 µM	24.6 µM and 110 µM	38.7 µM and 39.7 µM	99.9 µM and 178 µM	59.3 µM and 122 µM	70.7 µM and 183 µM	44.2 µM	35.9 µM	13.9 µM	101 µM	52.5 µM	106 µM	–	–	–	–
O=C(O)c1ccc(C(=O)O)c(C(=O)O)c1.[NH-]C1CCCCC1[NH-].[Pt+2]	> 100 µM	> 74.4 µM	19.1 µM	> 74.7 µM	44.1 µM	74.6 µM	27.7 µM	35.5 µM	57.9 µM	> 97.3 µM	11.7 µM	14.3 µM	0.768 µM	6.32 µM	0.43 µM	40.9 µM	5.94 µM	0.889 µM	1.99 µM	1.96 µM
OCCCc1cnco1	> 100 µM	> 100 µM	> 100 µM	> 100 µM	> 100 µM	> 100 µM	> 100 µM	> 100 µM	> 100 µM	> 100 µM	–	–	–	–	–	–	–	–	–	–
CC(=O)CC(=O)NC=O	> 100 µM	> 100 µM	> 100 µM	> 100 µM	> 100 µM	> 100 µM	> 100 µM	> 100 µM	> 100 µM	> 100 µM	–	–	–	–	–	–	–	–	–	–
NC(=S)N/N=C(\CCC(=O)Nc1ccccc1[N+](=O)[O-])CC(=O)c1ccco1	> 100 µM	> 100 µM	> 100 µM	> 100 µM	> 100 µM	> 100 µM	> 100 µM	> 100 µM	> 100 µM	> 100 µM	–	–	–	–	–	–	–	–	–	–
O=C(N/C=C/C=C/Sc1ccccc1)OCc1ccccc1	32.5 µM	49.2 µM	57 µM	31 µM	68.9 µM	36.1 µM	31 µM	33.1 µM	32.8 µM	64.6 µM	–	–	–	–	–	–	–	–	–	–

— PubChem BioAssay (NCI)
